Measured values from patent publication US20130060020A1, “Compounds useful for treating neurodegenerative disorders” (Satori Pharmaceuticals, Inc., priority 2011, published 2013).
pIC50: −log10 of the molar value. Read-outs that look alike come from different tables or passages of the source.

Key:
[1] = system: Aβ-40; assay: Aβ-40 MSD 3-plex ELISA, conditioned media of 2B7 cells; type: cell-based; conditions: Homo sapiens, 5 hours treatment, read-out: Aβ 40 IC50
Protocol: (§1) Assays were conducted to determine the ability of a Compound of Formula I to modulate […], and Aβ-38.
(§2) Plates with capture antibodies were blocked for 1-2 hours at room temperature with 150 μL of the manufactures blocking reagent.
(§3) Cultured 2B7 cells in 96 well plate with 250 μL of media per well until confluent;
(§4) Prepared serial dilutions of compounds in DMSO at 100× the final desired concentration;
(§5) Washed wells with 2B7 cells 1× with 250 μL of media;
(§6) Diluted DMSO stocks 1:100 into media: • Added 250 μL of media containing compounds (1% DMSO) to wells with 2B7 cells for 5 hours at 37° C.
(§7) ELISA Sample Prep: • Diluted conditioned media: 1 part media with 1% DMSO and 1 part blocking buffer; • 150 μL of the 250 μL of conditioned media were used.
(§8) Prepared per manufacturer's protocol (see above). • Seven point standard curve samples were prepared that contained Aβ-42, Aβ-40, and Aβ-38. The highest concentration of Aβ-42 and Aβ-38 was 3,000 pg/mL and the highest concentration of Aβ-40 was 10,000 pg/mL. Subsequent serial dilutions were 1:3 and the final composition of each sample was 1 part blocking buffer and 1 part cell medium containing 1% DMSO.
(§9) Overnight Sample Incubation: • Blocked plates are washed 5× with MSD wash buffer with a plate washer; • […] and blocker G reagent in MSD blocking solution was added; • 25 μL of samples (1 part conditioned media containing 1% DMSO and 1 part MSD blocking buffer) were then added; • Plates were incubated overnight at 4 degrees C. or 2 hours at room temperature.
(§10) Final Wash and Readout: • Washed wells 5× with MSD wash buffer; • Added 150 μL 2×MSD read buffer; • Read with MSD imager.
(§11) Aβ peptide levels for each peptide were calculated from the standard curve using the MSD software provided with the MSD 2400 Imager. Percent vehicle values for each compound dosage were then calculated and fit to a 4 parameter curve generating IC50 values.
(§12) Conditioned media from 2B7 cells (Mayo) was collected after 5 hours of treatment and diluted with 1 volume of Meso Scale Discovery (MSD, Gaithersburg Md.) blocking buffer (1% BSA in MSD wash buffer). For total Aβ measurements, standard-bind, multi-array single spot 96 well MSD ELISA plates were coated with unlabeled 4G8 capture antibody (Covance, Princeton, N.J.) overnight at 4° C. and then blocked with 5% BSA in MSD wash buffer for 1 hour at room temperature with orbital shaking Diluted 2B7 conditioned media were added to the blocked in-house total Aβ MSD plates with SULFO-TAG 6E10 antibody (MSD). For Aβ38, 40 and 42 measurements, diluted 2B7 conditioned media were added to blocked human (6E10) Aβ 3-Plex plates (MSD). Total Aβ and Aβ 3-Plex plates were incubated for 2 hours at room temperature with orbital shaking followed by washing and reading according to the manufacturer's instructions (SECTOR® Imager 2400, MSD). Aβ concentrations were converted to percent vehicle values and used to construct dose response curves which were fitted to […] using GraphPad Prism version 5.00 for Windows, GraphPad Software, San Diego Calif. USA.

[2] = system: Aβ-42; assay: Aβ-42 MSD 3-plex ELISA, conditioned media of 2B7 cells; type: cell-based; conditions: Homo sapiens, 5 hours treatment
Protocol: as §1, §2, §3, §4, §5, §6, §7, §8, §9, §10, §11, §12

[3] = system: Aβ-38; assay: Aβ-38 MSD 3-plex ELISA, conditioned media of 2B7 cells; type: cell-based; conditions: Homo sapiens, 5 hours treatment, read-out: Aβ 38 IC50
Protocol: as §1, §2, §3, §4, §5, §6, §7, §8, §9, §10, §11, §12

[4] = system: Aβ 42; assay: % 42 lowering and 40/42 selectivity after dosing in mg/kg (Table 5); type: in vivo; conditions: 10 hr
[5] = inflection of dose response curve, read-out: Aβ 42 DR IC50 Inflection

SMILES: CCO[C@@H]([C@H]1C[C@@H](C)[C@H]2[C@H](O1)[C@H](O)[C@@]1(C)[C@@H]3CC[C@H]4C(C)(C)[C@@H](O[C@H]5CN(CCN(C)C)CCO5)CC[C@@]45C[C@@]35CC[C@]21C)C(C)(C)O [Compound I-59]
- pIC50 [1]: 5.30 to 6.00
- pIC50 [2, 5]: 6.30 to 7.00
- pIC50 ([2]; read-out: Aβ 42 IC50): 6.30 to 7.00
- pIC50 [3]: 6.00 to 6.30

SMILES: CCO[C@@H]([C@H]1C[C@@H](C)[C@H]2[C@H](O1)[C@H](O)[C@@]1(C)[C@@H]3CC[C@H]4C(C)(C)[C@@H](O[C@H]5CN(CC6CN(C)C6)CCO5)CC[C@@]45C[C@@]35CC[C@]21C)C(C)(C)O [Compound I-5]
- %42 lowering 10 hr ([4]; 150 mg/kg): A (% 42 lowering of under 15%)

SMILES: CCO[C@@H]([C@H]1C[C@@H](C)[C@H]2[C@H](O1)[C@H](O)[C@@]1(C)[C@@H]3CC[C@H]4C(C)(C)[C@@H](O[C@H]5CN(CCN6CC(OC)C6)CCO5)CC[C@@]45C[C@@]35CC[C@]21C)C(C)(C)O [Compound I-62]
- pIC50 [1]: 5.30 to 6.00
- pIC50 [2, 5]: 6.30 to 7.00
- pIC50 ([2]; read-out: Aβ 42 IC50): 6.30 to 7.00
- pIC50 [3]: 6.00 to 6.30

SMILES: CCO[C@@H]([C@H]1C[C@@H](C)[C@H]2[C@H](O1)[C@H](O)[C@@]1(C)[C@@H]3CC[C@H]4C(C)(C)[C@@H](O[C@H]5CN(C6(C)CN(C)C6)CCO5)CC[C@@]45C[C@@]35CC[C@]21C)C(C)(C)O [Compound I-31]
- pIC50 [1]: 5.30 to 6.00
- pIC50 [2, 5]: > 7.00
- pIC50 ([2]; read-out: Aβ 42 IC50): > 7.00
- pIC50 [3]: 6.30 to 7.00

SMILES: CCO[C@@H]([C@H]1C[C@@H](C)[C@H]2[C@H](O1)[C@H](O)[C@@]1(C)[C@@H]3CC[C@H]4C(C)(C)[C@@H](O[C@H]5CN(C6CCN(C(C)C)CC6)CCO5)CC[C@@]45C[C@@]35CC[C@]21C)C(C)(C)O [Compound I-30]
- pIC50 [1]: 5.30 to 6.00
- pIC50 [2, 5]: > 7.00
- pIC50 ([2]; read-out: Aβ 42 IC50): > 7.00
- 40/42 selective 10 hr ([4]; 100 mg/kg): G^a (16-20 fold selectivity)
- %42 lowering 10 hr ([4]; 100 mg/kg): A^a (% 42 lowering of under 15%)
- pIC50 [3]: 6.30 to 7.00

SMILES: CCO[C@@H]([C@H]1C[C@@H](C)[C@H]2[C@H](O1)[C@H](O)[C@@]1(C)[C@@H]3CC[C@H]4C(C)(C)[C@@H](O[C@H]5CN(C6(C)CN(CC7(C)COC7)C6)CCO5)CC[C@@]45C[C@@]35CC[C@]21C)C(C)(C)O [Compound I-34]
- pIC50 [1]: 5.30 to 6.00
- pIC50 [2, 5]: 6.30 to 7.00
- pIC50 ([2]; read-out: Aβ 42 IC50): 6.30 to 7.00
- pIC50 [3]: 6.00 to 6.30

SMILES: CCO[C@@H]([C@H]1C[C@@H](C)[C@H]2[C@H](O1)[C@H](O)[C@@]1(C)[C@@H]3CC[C@H]4C(C)(C)[C@@H](O[C@H]5CN(CC6(O)CN(CC(C)(C)O)C6)CCO5)CC[C@@]45C[C@@]35CC[C@]21C)C(C)(C)O [Compound I-47]
- pIC50 [1]: 5.30 to 6.00
- pIC50 [2, 5]: 6.30 to 7.00
- pIC50 ([2]; read-out: Aβ 42 IC50): 6.30 to 7.00
- pIC50 [3]: 6.30 to 7.00

SMILES: CCO[C@@H]([C@H]1C[C@@H](C)[C@H]2[C@H](O1)[C@H](O)[C@@]1(C)[C@@H]3CC[C@H]4C(C)(C)[C@@H](O[C@H]5CN(C6CCN(C)CC6)CCO5)CC[C@@]45C[C@@]35CC[C@]21C)C(C)(C)O [Compound I-29]
- pIC50 [1]: 5.30 to 6.00
- pIC50 [2, 5]: > 7.00
- pIC50 ([2]; read-out: Aβ 42 IC50): > 7.00
- pIC50 [3]: 6.30 to 7.00

SMILES: CCO[C@@H]([C@H]1C[C@@H](C)[C@H]2[C@H](O1)[C@H](O)[C@@]1(C)[C@@H]3CC[C@H]4C(C)(C)[C@@H](O[C@H]5CN(C6CN(CC7(C)COC7)C6)CCO5)CC[C@@]45C[C@@]35CC[C@]21C)C(C)(C)O [Compound I-32]
- pIC50 [1]: 5.30 to 6.00
- pIC50 [2, 5]: 6.30 to 7.00
- pIC50 ([2]; read-out: Aβ 42 IC50): 6.30 to 7.00
- pIC50 [3]: 6.30 to 7.00
